Counter-ions that a name gives are not always drawn. Like-named read-outs stand apart in the source and are kept apart here.

The target in the test is T1, 5-HT2A receptor (Homo sapiens, UniProt P28223).
T1 construct: expressed in transfected cells; host or cells: NIH3T3 cells, pSI expression vector
The test can be described thus: R-SAT functional receptor assay. The test is classed as cell-based. Conditions: for Emax: 120 h. As for the experimental part:
The functional receptor assay, Receptor Selection and Amplification Technology (R-SAT), was used (with minor modifications from that previously described U.S. Pat. No. 5,707,798) to screen compounds for efficacy at the 5-HT2A receptor. Briefly, NIH3T3 cells were grown in 96 well tissue culture plates to 70-80% confluence. Cells were transfected for 12-16 hours with plasmid DNAs using superfect (Qiagen Inc.) as per manufacture's protocols. R-SAT's were generally performed with 50 ng/well of receptor and 20 ng/well of Beta-galactosidase plasmid DNA. All receptor and G-protein constructs used were in the pSI mammalian expression vector (Promega Inc) as described in U.S. Pat. No. 5,707,798. The 5HT2A receptor gene was amplified by nested PCR from brain cDNA using the oligodeoxynucleotides based on the published sequence (see Saltzman et. al. Biochem. Biophys. Res. Comm. 181:1469-78 (1991)). Large-scale transfections, cells were transfected for 12-16 hours, then trypsinized and frozen in DMSO. Frozen cells were later thawed, plated at 10,000-40,000 cells per well of a 96 well plate that contained drug. With both methods, cells were then grown in a humidified atmosphere with 5% ambient CO2 for five days. Media was then removed from the plates and marker gene activity was measured by the addition of the beta-galactosidase substrate ONPG (in PBS with 5% NP-40). The resulting colorimetric reaction was measured in a spectrophotometric plate reader (Titertek Inc.)at […]. All data were analyzed using the computer program XLFit (IDBSm). Efficacy is the percent maximal repression compared to repression by a control compound (ritanserin in the case of 5HT2A). pIC50 is the negative of the log(IC50), where IC50 is the calculated concentration in Molar that produces 50% maximal repression.
Briefly, the 5-HT2A receptor, and the alpha subunit of the guanine nucleotide binding protein Gq were transiently transfected into NIH3T3 cells and assayed using the functional receptor assay, Receptor Selection and Amplification Technology (R-SAT) essentially as disclosed in U.S. Pat. No. 5,707,798. Each compound was screened at seven serially diluted concentrations in triplicate. Data were analyzed using least squares fit analysis with GraphPad Prism (San Diego, Calif.), and are reported normalized to percent response.
R-SAT assays (as described in Example 42) were carried out with cells transfected with receptors (listed below) to determine the receptor selectivity profile for compound 26HCH16D. 5HT2A inverse agonist data (IC50 nM; % efficacy) were derived from detailed dose response curves (7 points in triplicate).
The functional receptor assay, Receptor Selection and Amplification Technology (R-SAT), was used (with minor modifications from that previously described U.S. Pat. No. 5,707,798) to screen compounds for efficacy at the 5-HT2A receptor. The RSAT assay was conducted as described herein.
The functional receptor assay, Receptor Selection and Amplification Technology (R-SAT), was used (with minor modifications from that previously described U.S. Pat. No. 5,707,798, which is incorporated herein by reference in its entirety) to screen compounds for efficacy at the 5-HT2A receptor. The RSAT assay was conducted as described herein.

Where [1] appears, read: read-out: Percent Efficacy, compared to ritanserin.
Where [2] appears, read: Table 3, read-out: pIC50 (converted).
The mark [3] stands for this setting: compared to ritanserin, read-out: 5HT2A % inhibition.
Where [4] appears, read: Table 6, read-out: 5HT2A pIC50 (converted).
The mark [5] stands for this setting: Table 5, read-out: 5HT2A pIC50 (converted).

T1 sequence (P28223 whole entry): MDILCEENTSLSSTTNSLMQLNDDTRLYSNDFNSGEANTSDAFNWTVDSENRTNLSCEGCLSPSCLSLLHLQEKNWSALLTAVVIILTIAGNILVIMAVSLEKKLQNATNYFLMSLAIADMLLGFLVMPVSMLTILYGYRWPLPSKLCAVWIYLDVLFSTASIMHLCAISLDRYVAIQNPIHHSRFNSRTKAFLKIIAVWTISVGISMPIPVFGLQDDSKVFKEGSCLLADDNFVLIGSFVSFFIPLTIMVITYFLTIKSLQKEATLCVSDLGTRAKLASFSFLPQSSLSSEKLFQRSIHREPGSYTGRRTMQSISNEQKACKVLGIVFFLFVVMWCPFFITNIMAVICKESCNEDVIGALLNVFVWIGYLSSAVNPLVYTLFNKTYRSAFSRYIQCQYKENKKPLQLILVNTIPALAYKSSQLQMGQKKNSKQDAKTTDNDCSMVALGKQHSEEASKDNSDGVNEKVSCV

`CCOc1ccc(CC(=O)N(CCc2ccc(F)cc2)C2CCN(C)CC2)cc1` [Example 63ELH20, 2-(4-ethoxyphenyl)-N-[2-(4-fluorophenyl)ethyl]-N-(1-methylpiperidin-4-yl)acetamide]: the Emax under setting [1] was 95%. For the same molecule, the IC50 under setting [2] was 1 nM.
On the same counts, the results for `CCOc1ccc(CC(=O)N(Cc2ccc(F)cc2)C2CCN(C)CC2)cc1` [Example 63ELH21, 2-(4-Ethoxyphenyl)-N-(4-fluorobenzyl)-N-(1-methylpiperidin-4-yl)acetamide] are 100% and 3.16 nM.
For the molecule `Cc1ccc(CC2N(Cc3ccc(OC(F)(F)F)cc3)C(=O)OC23CCN(C)CC3)cc1` (stereo not shown) [Example 69NLS21, 8-Methyl-4-(4-methylbenzyl)-3-(4-trifluoromethoxybenzyl)-1-oxa-3,8-diaza-spiro[4.5]decan-2-one, hydrochloride], the Emax under setting [3] is 83%. Moreover, under setting [4], the IC50 was 0.794 nM.
For the molecule `COc1ccc(CN2C(=O)OC3(CCN(C)CC3)C2Cc2ccc(C)cc2)cc1` (stereo not shown) [Example 69NLS35, 3-(4-Methoxybenzyl)-8-methyl-4-(4-methylbenzyl)-1-oxa-3,8-diaza-spiro[4.5]decan-2-one, hydrochloride], under setting [3], the Emax is 103%. In addition, the IC50 under setting [4] is 0.251 nM.
On the same counts, the results for `CN1CCC2(CC1)OC(=O)N(Cc1ccc(OCC3CC3)cc1)C2Cc1ccc(F)cc1` (stereo not shown) [Example 69NLS52, 3-(4-Cyclopropylmethoxybenzyl)-4-(4-fluorobenzyl)-8-methyl-1-oxa-3,8-diaza-spiro[4.5]decan-2-one, hydrochloride] are 87% and 0.251 nM.
The like results for `CC(C)COc1ccc(CN2C(=O)OC3(CCN(CCC4OCCO4)CC3)C2Cc2ccc(F)cc2)cc1` (stereo not shown) [Example 69NLS79-II, 8-(2-[1,3]Dioxolan-2-yl-ethyl)-4-(4-fluorobenzyl)-3-(4-isobutoxybenzyl)-1-oxa-3,8-diaza-spiro[4.5]decan-2-one, hydrochloride] were, in that order, 101% and 7.94 nM.
On to `CC(C)COc1ccc(CN2C(=O)OC3(CCNCC3)C2Cc2ccc(F)cc2)cc1` (stereo not shown) [Example 69NLS81, 4-(4-Fluorobenzyl)-3-(4-isobutoxybenzyl)-1-oxa-3,8-diaza-spiro[4.5]decan-2-one, hydrochloride], for which the Emax under setting [3] was determined as 85%. The IC50 under setting [4] was 5.01 nM.
Turning to `CC(C)COc1ccc(CN2C(=O)OC3(CCN(CCCN4CCOCC4)CC3)C2Cc2ccc(F)cc2)cc1` (stereo not shown) [Example 69NLS83, 4-(4-Fluorobenzyl)-3-(4-isobutoxybenzyl)-8-(3-morpholin-4-yl-propyl)-1-oxa-3,8-diaza-spiro[4.5]decan-2-one, dihydrochloride], the Emax under setting [3] was found to be 85%. Also, the IC50 under setting [4] was 10 nM.
The like results for `CC(C)COc1ccc(CN2C(=O)OC3(CCN(C(C)C)CC3)C2Cc2ccc(F)cc2)cc1` (stereo not shown) [Example 69NLS85, 4-(4-Fluorobenzyl)-3-(4-isobutoxybenzyl)-8-isopropyl-1-oxa-3,8-diaza-spiro[4.5]decan-2-one, hydrochloride] were, in that order, 95% and 0.794 nM.
`CC(C)COc1ccc(CC(=O)N(Cc2ccc(F)cc2)C2CCN(CCCN3CCCC3=O)CC2)cc1` [Example 098AF76-65, N-(4-Fluorobenzyl)-2-(4-isobutoxyphenyl)-N-{1-[3-(2-oxo-pyrrolidin-1-yl)propyl]piperidin-4-yl}acetamide, hydrochloride]: the Emax (read-out: 5HT2A % INH, compared to ritanserin) amounted to 100%. Also, under setting [5], the IC50 was 0.794 nM.
Take `CC(C)COc1ccc(CC(=O)N(Cc2ccc(F)cc2)C2CCN(CCCN3CC(C)CC(C)C3)CC2)cc1` (stereo not shown) [Example 103NLS45-B, N-{1-[3-(3,5-Dimethylpiperidin-1-yl)propyl]piperidin-4-yl}-N-(4-fluorobenzyl)-2-(4-isobutoxyphenyl)acetamide, dihydrochloride]: the Emax (read-out: 5HT2A % INH) was determined as 84%. Besides, the IC50 under setting [5] was 25.1 nM.

The record behind these values is US20080051429A1, “USE OF 4-AMINO-PIPERIDINES FOR TREATING SLEEP DISORDERS” (priority 2006, published 2008).
